Assay: Safety and tolerability
Format: in vivo, human
[1] = 5 mg QD 14 days, healthy adults, 8 evaluable
[2] = 15 mg QD 14 days, healthy adults, 8 evaluable
[3] = 50 mg QD 14 days, healthy adults, 8 evaluable
[4] = 50 mg QD 14 days, healthy older subjects, 10 evaluable
[5] = 125 mg QD 14 days, healthy adults, 12 evaluable
[6] = 125 mg QD 14 days, healthy older subjects, 8 evaluable
[7] = 275 mg QD 14 days, healthy adults, 9 evaluable
[8] = single 3 mg, healthy adults, 5 evaluable
[9] = single 12 mg, healthy adults, 6 evaluable
[10] = single 40 mg, healthy adults, 6 evaluable
[11] = single 160 mg, healthy adults, 6 evaluable
[12] = single 200 mg fed, healthy adults, 6 evaluable
[13] = single 200 mg, healthy adults, 6 evaluable
[14] = single 400 mg, healthy adults, 6 evaluable
[15] = single 540 mg, healthy adults, 6 evaluable
[16] = studies B8271001 and B8271004 overall

C[C@H]1C[C@H]2CSC(N)=N[C@@]2(c2nc(NC(=O)c3ccc(OC(F)F)cn3)cs2)CO1 [PF-06751979]
moderate maculopapular rash: Rash leading to discontinuation, one subject (275 mg QD, 6 h post-dose on Day 11, deemed treatment related)
1.15 x ULN: AST elevation, one subject (275 mg QD, Day 14, after discontinuation on Day 11)
no SAEs or deaths were reported: SAEs or deaths [16]
6: Number of subjects with AEs, treatment related [4] | Number of AEs, treatment related [5] | Number of subjects with AEs, all-causality [6] | Number of AEs, treatment related [15] | Number of subjects with AEs, all-causality [15]
2 (2): Number of AEs, all-causality treatment-emergent [2] | Number of AEs, treatment related [2] | Number of subjects with AEs, all-causality [2] | Number of subjects with AEs, treatment related [2] | Abnormal dreams, all-causality [4] | Abnormal dreams, treatment related [4] | Fatigue (MedDRA preferred term), all-causality [5] | Fatigue, treatment related [5] | Fatigue (MedDRA preferred term), all-causality [13] | Fatigue, treatment related [13] | Number of subjects with AEs, all-causality [14] | Number of subjects with AEs, treatment related [14] | Headache (MedDRA preferred term), all-causality [15] | Headache, treatment related [15]
7: Number of subjects with AEs, all-causality [4] | Number of AEs, treatment related [6] | Number of subjects with AEs, treatment related [7] | Number of AEs, all-causality treatment-emergent [12]
4: Number of subjects with AEs, treatment related [5] | Number of AEs, treatment related [12]
4 (4): Number of subjects with AEs, all-causality [12] | Number of subjects with AEs, treatment related [12]
5 (5): Number of AEs, all-causality treatment-emergent [14] | Number of AEs, treatment related [14]
7.7 ×ULN: ALT peak, one subject (15 mg QD, Day 21)
13: Number of AEs, treatment related [7]
5: Number of subjects with AEs, treatment related [6] | Number of AEs, all-causality treatment-emergent [13]
15: Number of AEs, all-causality treatment-emergent [4]
18: Number of AEs, all-causality treatment-emergent [7]
no clinically meaningful findings: Findings in ECGs or vital signs (studies B8271001 and B8271004)
mild to moderate: Severity of TEAEs [16]
22: Number of AEs, all-causality treatment-emergent [5]
5.6 ×ULN: AST peak, one subject (15 mg QD, Day 21)
1: Dizziness, all-causality [4] | Headache (MedDRA preferred term), all-causality [4] | Headache, treatment related [5] | Hepatic enzyme increased, all-causality [5] | Paresthesia, all-causality [5] | Headache (MedDRA preferred term), all-causality [7] | Number of AEs, all-causality treatment-emergent [8] | Number of subjects with AEs, all-causality [8]
9: Number of AEs, treatment related [4]
11: Number of AEs, all-causality treatment-emergent [6]
2: Back pain, all-causality [5] | Procedural pain, all-causality [5] | Musculoskeletal discomfort, all-causality [7]
10: Number of subjects with AEs, all-causality [5] | Number of AEs, all-causality treatment-emergent [15]
8: Number of subjects with AEs, all-causality [7]
1 (1): Number of AEs, all-causality treatment-emergent [1] | Number of AEs, treatment related [1] | Number of subjects with AEs, all-causality [1] | Number of subjects with AEs, treatment related [1] | Headache (MedDRA preferred term), all-causality [2] | Headache, treatment related [2] | Hepatic enzyme increased, all-causality [2] | Hepatic enzyme increased, treatment related [2] | Number of AEs, all-causality treatment-emergent [3] | Number of AEs, treatment related [3] | Number of subjects with AEs, all-causality [3] | Number of subjects with AEs, treatment related [3] | Fatigue (MedDRA preferred term), all-causality [4] | Fatigue, treatment related [4] | Insomnia, all-causality [5] | Insomnia, treatment related [5] | Fatigue (MedDRA preferred term), all-causality [6] | Fatigue, treatment related [6] | Headache (MedDRA preferred term), all-causality [6] | Headache, treatment related [6] | Hepatic enzyme increased, all-causality [7] | Hepatic enzyme increased, treatment related [7] | Number of subjects with discontinuation due to AEs [7] | Number of subjects with discontinuation due to AEs, treatment related [7] | Paresthesia, all-causality [7] | Paresthesia, treatment related [7] | Fatigue (MedDRA preferred term), all-causality [12] | Fatigue, treatment related [12] | Headache (MedDRA preferred term), all-causality [14] | Headache, treatment related [14]
3 (3): Number of subjects with AEs, all-causality [13] | Number of subjects with AEs, treatment related [13]
0: Back pain, all-causality [1] | Fatigue (MedDRA preferred term), all-causality [1] | Headache (MedDRA preferred term), all-causality [1] | Hepatic enzyme increased, all-causality [1] | Insomnia, all-causality [1] | Musculoskeletal discomfort, all-causality [1] | Number of subjects with SAEs [1] | Number of subjects with discontinuation due to AEs [1] | Number of subjects with severe AEs [1] | Number of subjects with temporary discontinuation or dose reduction due to AEs [1] | Paresthesia, all-causality [1] | Procedural pain, all-causality [1] | Back pain, all-causality [2] | Fatigue (MedDRA preferred term), all-causality [2] | Insomnia, all-causality [2] | Musculoskeletal discomfort, all-causality [2] | Number of subjects with SAEs [2] | Number of subjects with discontinuation due to AEs [2] | Number of subjects with severe AEs [2] | Number of subjects with temporary discontinuation or dose reduction due to AEs [2] | Paresthesia, all-causality [2] | Procedural pain, all-causality [2] | Back pain, all-causality [3] | Fatigue (MedDRA preferred term), all-causality [3] | Headache (MedDRA preferred term), all-causality [3] | Hepatic enzyme increased, all-causality [3] | Insomnia, all-causality [3] | Musculoskeletal discomfort, all-causality [3] | Number of subjects with SAEs [3] | Number of subjects with discontinuation due to AEs [3] | Number of subjects with severe AEs [3] | Number of subjects with temporary discontinuation or dose reduction due to AEs [3] | Paresthesia, all-causality [3] | Procedural pain, all-causality [3] | Dizziness, treatment related [4] | Headache, treatment related [4] | Number of subjects with SAEs [4] | Number of subjects with discontinuation due to AEs [4] | Number of subjects with severe AEs [4] | Number of subjects with temporary discontinuation or dose reduction due to AEs [4] | Back pain, treatment related [5] | Hepatic enzyme increased, treatment related [5] | Musculoskeletal discomfort, treatment related [5] | Number of subjects with SAEs [5] | Number of subjects with discontinuation due to AEs [5] | Number of subjects with severe AEs [5] | Number of subjects with temporary discontinuation or dose reduction due to AEs [5] | Paresthesia, treatment related [5] | Procedural pain, treatment related [5] | Abnormal dreams, all-causality [6] | Dizziness, all-causality [6] | Number of subjects with SAEs [6] | Number of subjects with discontinuation due to AEs [6] | Number of subjects with severe AEs [6] | Number of subjects with temporary discontinuation or dose reduction due to AEs [6] | Back pain, all-causality [7] | Fatigue (MedDRA preferred term), all-causality [7] | Headache, treatment related [7] | Insomnia, all-causality [7] | Musculoskeletal discomfort, treatment related [7] | Number of subjects with SAEs [7] | Number of subjects with severe AEs [7] | Number of subjects with temporary discontinuation or dose reduction due to AEs [7] | Procedural pain, all-causality [7] | Fatigue (MedDRA preferred term), all-causality [8] | Headache (MedDRA preferred term), all-causality [8] | Number of AEs, treatment related [8] | Number of subjects with AEs, treatment related [8] | Number of subjects with SAEs [8] | Number of subjects with discontinuation due to AEs [8] | Number of subjects with severe AEs [8] | Number of subjects with temporary discontinuation or dose reduction due to AEs [8] | Fatigue (MedDRA preferred term), all-causality [9] | Headache (MedDRA preferred term), all-causality [9] | Number of AEs, all-causality treatment-emergent [9] | Number of subjects with AEs, all-causality [9] | Number of subjects with SAEs [9] | Number of subjects with discontinuation due to AEs [9] | Number of subjects with severe AEs [9] | Number of subjects with temporary discontinuation or dose reduction due to AEs [9] | Fatigue (MedDRA preferred term), all-causality [10] | Headache (MedDRA preferred term), all-causality [10] | Number of AEs, all-causality treatment-emergent [10] | Number of subjects with AEs, all-causality [10] | Number of subjects with SAEs [10] | Number of subjects with discontinuation due to AEs [10] | Number of subjects with severe AEs [10] | Number of subjects with temporary discontinuation or dose reduction due to AEs [10] | Fatigue (MedDRA preferred term), all-causality [11] | Headache (MedDRA preferred term), all-causality [11] | Number of AEs, all-causality treatment-emergent [11] | Number of subjects with AEs, all-causality [11] | Number of subjects with SAEs [11] | Number of subjects with discontinuation due to AEs [11] | Number of subjects with severe AEs [11] | Number of subjects with temporary discontinuation or dose reduction due to AEs [11] | Headache (MedDRA preferred term), all-causality [12] | Number of subjects with SAEs [12] | Number of subjects with discontinuation due to AEs [12] | Number of subjects with severe AEs [12] | Number of subjects with temporary discontinuation or dose reduction due to AEs [12] | Headache (MedDRA preferred term), all-causality [13] | Number of subjects with SAEs [13] | Number of subjects with discontinuation due to AEs [13] | Number of subjects with severe AEs [13] | Number of subjects with temporary discontinuation or dose reduction due to AEs [13] | Fatigue (MedDRA preferred term), all-causality [14] | Number of subjects with SAEs [14] | Number of subjects with discontinuation due to AEs [14] | Number of subjects with severe AEs [14] | Number of subjects with temporary discontinuation or dose reduction due to AEs [14] | Fatigue (MedDRA preferred term), all-causality [15] | Number of subjects with SAEs [15] | Number of subjects with discontinuation due to AEs [15] | Number of subjects with severe AEs [15] | Number of subjects with temporary discontinuation or dose reduction due to AEs [15]
3: Headache (MedDRA preferred term), all-causality [5] | Musculoskeletal discomfort, all-causality [5] | Number of AEs, treatment related [13] | Number of subjects with AEs, treatment related [15]

Source: article PMC6839502 (Journal of Alzheimer's Disease, 2019)
